Values of other authors in article PMC7351026, “Serum Half-Lives for Short- and Long-Chain Perfluoroalkyl Acids after Ceasing Exposure from Drinking Water Contaminated by Firefighting Foam” (Environmental Health Perspectives, 2020).

Parameters: method as in Olsen et al. 2009
Details: occupationally exposed workers; ref Olsen et al. 2009; cited from earlier work

O=S(=O)(O)C(F)(F)C(F)(F)C(F)(F)C(F)(F)F [PFBS, perfluorobutane sulfonic acid]
Serum level, average: 397 ng/mL
